Data taken from patent US4110330A, “5'-Acetonylvincristine and related compounds” (priority 1977, dated 1978).
Values joined by “and” are separate entries in the source; they are usually repeats but may differ in a detail not shown here. Equal entries are not always repeated.

What was measured:
[1] = tested on: Gardner lymphosarcoma (GLS); assay: Transplanted tumor GLS in mice, percent inhibition of tumor growth or percent prolongation of survival time; type: in vivo
Experimental: (§1) The compounds of this invention are antimitotic agents being active in tissue culture and against transplanted tumors in mice.
(§2) The following table -- Table 1 -- gives the results of several experiments in which mice bearing transplanted tumors were treated successfully with a compound of this invention. The following abbreviations are employed: Compound A is 5'-acetonylvincristine sulfate; B and C are the corresponding dehydrated hemiketal sulfate and free base; D is 4-desacetyl-5'-acetonylvincristine; GLS is Gardner lymphosarcoma; ROS is Ridgeway Osteogenic Sarcoma and CA755 is an adenocarcinoma. In the table, column 1 gives the compound designation; column 2, the abbreviation of the name of transplanted tumor; column 3, the dose level and the number of days that dosage was administered; and column 4, the percent inhibition of tumor growth or percent prolongation of survival time

[2] = tested on: experimental maliganancies; conditions: background; cited from earlier work
CA755 (adenocarcinoma) = assay: Transplanted tumor CA755 in mice, percent inhibition of tumor growth or percent prolongation of survival time; type: in vivo
Experimental: as §1, §2

[3] = tested on: Ridgeway Osteogenic Sarcoma (ROS); assay: Transplanted tumor ROS in mice, percent inhibition of tumor growth or percent prolongation of survival time; type: in vivo
Experimental: as §1, §2

[4] = 0.05 mg/kg × 9 days, marked *: not statistically significantly different from control
[5] = 0.3 mg/kg × 7 days, marked *: not statistically significantly different from control

CCC12CC3CN(CCc4c([nH]c5ccccc45)C(C(=O)OC)(c4cc5c(cc4OC)N(C=O)C4C(O)(C(=O)OC)C(OC(C)=O)C6(CC)C=CCN7CCC54C76)C3)C1C=C(C)O2 (centres unmarked) [C, 2",3"-dehydro-5'-acetonylvincristine 1",2"-hemiketal]
percent inhibition of tumor growth or percent prolongation of survival time ([1]; 0.5 mg/kg × 7 days): 57% | percent inhibition of tumor growth or percent prolongation of survival time ([1]; 0.5 mg/kg × 7 days, marked *: not statistically significantly different from control): 2% | percent inhibition of tumor growth or percent prolongation of survival time ([1]; 1.0 mg/kg × 7 days): 100% | percent inhibition of tumor growth or percent prolongation of survival time ([1]; 1.0 mg/kg × 7 days, marked *: not statistically significantly different from control): 5% | percent inhibition of tumor growth or percent prolongation of survival time ([1]; 5.0 mg/kg × 7 days): 100%

CCC1(O)CN2CCc3c([nH]c4ccccc34)C(C(=O)OC)(c3cc4c(cc3OC)N(C)C3C(O)(C(=O)OC)C(OC(C)=O)C5(CC)C=CCN6CCC43C65)CC(C2)C1O (centres unmarked) [vincadioline]
activity in the treatment of experimental malignancies in animals [2]: active

CCC1(O)CC2CN(CCc3c([nH]c4ccccc34)C(C(=O)OC)(c3cc4c(cc3OC)N(C=O)C3C(O)(C(=O)OC)C(OC(C)=O)C5(CC)C=CCN6CCC43C65)C2)C1CC(C)=O.O=S(=O)(O)O (centres unmarked) [Compound A, 5'-acetonylvincristine sulfate]
percent inhibition of tumor growth or percent prolongation of survival time (CA755 (adenocarcinoma); 0 mg/kg × 8 days (so in the source)): 39% | percent inhibition of tumor growth or percent prolongation of survival time (CA755 (adenocarcinoma); 0.3 mg/kg × 8 days, marked *: not statistically significantly different from control): 21% | percent inhibition of tumor growth or percent prolongation of survival time (CA755 (adenocarcinoma); 0.5 mg/kg × 8 days): 39% | percent inhibition of tumor growth or percent prolongation of survival time (CA755 (adenocarcinoma); 5.0 mg/kg × 8 days): 34% | percent inhibition of tumor growth or percent prolongation of survival time [1, 4]: 8% | percent inhibition of tumor growth or percent prolongation of survival time ([1]; 0.3 mg/kg × 7-9 days): 39% | percent inhibition of tumor growth or percent prolongation of survival time ([1]; 0.3 mg/kg × 7-9 days, marked *: not statistically significantly different from control): 13% | percent inhibition of tumor growth or percent prolongation of survival time ([1]; 0.5 mg/kg × 7-9 days): 49% and 65% | percent inhibition of tumor growth or percent prolongation of survival time ([1]; 1.0 mg/kg × 7-9 days): 81% and 86% | toxicity ([3]; 0.05 mg/kg × 10 days): TOXIC | percent inhibition of tumor growth or percent prolongation of survival time ([3]; 0.1 mg/kg × 10 days): 0% | percent inhibition of tumor growth or percent prolongation of survival time ([3]; 0.2 mg/kg × 10 days): 60% | percent inhibition of tumor growth or percent prolongation of survival time ([3]; 0.3 mg/kg × 10 days): 34% | toxicity ([3]; 0.5 mg/kg × 10 days): TOXIC | toxicity ([3]; 1.0 mg/kg × 10 days): TOXIC

CC[C@]1(O)C[C@H]2CN(CCc3c([nH]c4ccccc34)[C@@](C(=O)OC)(c3cc4c(cc3OC)N(C)[C@@H]3[C@]45CCN4CC=C[C@@](CC)(C[C@]3(O)C(=O)OC)[C@H]45)C2)C1 [4-desacetoxyvinblastine]
activity in the treatment of experimental malignancies in animals [2]: active

CCC1(O)CC2CN(CCc3c([nH]c4ccccc34)C(C(=O)OC)(c3cc4c(cc3OC)N(C=O)C3C(O)(C(=O)OC)C(O)C5(CC)C=CCN6CCC43C65)C2)C1CC(C)=O (centres unmarked) [D, 4-desacetyl-5'-acetonylvincristine]
percent inhibition of tumor growth or percent prolongation of survival time [1, 5]: 0% | percent inhibition of tumor growth or percent prolongation of survival time ([1]; 0.5 mg/kg × 7 days): 37% and 26% | percent inhibition of tumor growth or percent prolongation of survival time ([1]; 1.0 mg/kg × 7 days): 100% and 62%

CC[C@]1(O)C[C@@H]2CN(CCc3c([nH]c4ccccc34)[C@@](C(=O)OC)(c3cc4c(cc3OC)N(C)[C@H]3[C@@](O)(C(=O)OC)[C@H](OC(C)=O)[C@]5(CC)C=CCN6CC[C@]43[C@@H]65)C2)C1 [VLB, vincaleukoblastine]
activity in the treatment of experimental malignancies in animals [2]: active

CC[C@@]1(O)C[C@@H]2CN(CCc3c([nH]c4ccccc34)[C@@](C(=O)OC)(c3cc4c(cc3OC)N(C)[C@H]3[C@@](O)(C(=O)OC)[C@H](OC(C)=O)[C@]5(CC)C=CCN6CC[C@]43[C@@H]65)C2)C1 [leurosidine]
activity in the treatment of experimental malignancies in animals [2]: active

CC[C@]1(O)C[C@H]2CN(CCc3c([nH]c4ccccc34)[C@@](C(=O)OC)(c3cc4c(cc3OC)N(C=O)[C@H]3[C@@](O)(C(=O)OC)[C@H](OC(C)=O)[C@]5(CC)C=CCN6CC[C@]43[C@@H]65)C2)C1 [leurocristine]
activity in the treatment of experimental malignancies in animals [2]: active

CC[C@]12CN3CCc4c([nH]c5ccccc45)[C@@](C(=O)OC)(c4cc5c(cc4OC)N(C)[C@H]4[C@@](O)(C(=O)OC)[C@H](OC(C)=O)[C@]6(CC)C=CCN7CC[C@]54[C@@H]76)C[C@H](C3)[C@H]1O2 [leurosine]
activity in the treatment of experimental malignancies in animals [2]: active

CC[C@]12CN3CCc4c([nH]c5ccccc45)[C@@](C(=O)OC)(c4cc5c(cc4OC)N(C=O)[C@H]4[C@@](O)(C(=O)OC)[C@H](OC(C)=O)[C@]6(CC)C=CCN7CC[C@]54[C@@H]76)C[C@@H](C3)[C@H]1O2 [leuroformine, N-formylleurosine]
activity in the treatment of experimental malignancies in animals [2]: active

CCC1(O)CN2CCc3c([nH]c4ccccc34)C(C(=O)OC)(c3cc4c(cc3OC)N(C)C3C(O)(C(=O)OC)CC5(CC)C=CCN6CCC43C65)CC(C2)C1O (centres unmarked) [4-desacetoxy-3'-hydroxyvinblastine]
activity in the treatment of experimental malignancies in animals [2]: active

CCC12CC3CN(CCc4c([nH]c5ccccc45)C(C(=O)OC)(c4cc5c(cc4OC)N(C=O)C4C(O)(C(=O)OC)C(OC(C)=O)C6(CC)C=CCN7CCC54C76)C3)C1C=C(C)O2.O=S(=O)(O)O (centres unmarked) [B, 2",3"-dehydro-5'-acetonylvincristine 1",2"-hemiketal]
percent inhibition of tumor growth or percent prolongation of survival time [1, 4]: 13% | percent inhibition of tumor growth or percent prolongation of survival time ([1]; 0.1 mg/kg × 7 days): 0% | percent inhibition of tumor growth or percent prolongation of survival time ([1]; 0.1 mg/kg × 9 days, marked *: not statistically significantly different from control): 21% | percent inhibition of tumor growth or percent prolongation of survival time ([1]; 0.2 mg/kg × 7 days, marked *: not statistically significantly different from control): 21% | percent inhibition of tumor growth or percent prolongation of survival time ([1]; 0.2 mg/kg × 9 days, marked *: not statistically significantly different from control): 8% | percent inhibition of tumor growth or percent prolongation of survival time [1, 5]: 22% and 37% | percent inhibition of tumor growth or percent prolongation of survival time ([1]; 0.3 mg/kg × 9 days): 36% | percent inhibition of tumor growth or percent prolongation of survival time ([1]; 0.5 mg/kg × 7 days): 54% and 39% and 59% | percent inhibition of tumor growth or percent prolongation of survival time ([1]; 0.5 mg/kg × 9 days): 71% | percent inhibition of tumor growth or percent prolongation of survival time ([1]; 1.0 mg/kg × 7 days): 100% and 76% and 96% | percent inhibition of tumor growth or percent prolongation of survival time ([1]; 1.0 mg/kg × 9 days): 93% | percent inhibition of tumor growth or percent prolongation of survival time ([1]; 5.0 mg/kg × 7 days): 100% | percent inhibition of tumor growth or percent prolongation of survival time ([3]; 0.1 mg/kg × 10 days): 39% | percent inhibition of tumor growth or percent prolongation of survival time ([3]; 0.2 mg/kg × 10 days): 26% | percent inhibition of tumor growth or percent prolongation of survival time ([3]; 0.3 mg/kg × 10 days, marked *: not statistically significantly different from control): 14% | percent inhibition of tumor growth or percent prolongation of survival time ([3]; 0.5 mg/kg × 10 days, marked *: not statistically significantly different from control): 0% | percent inhibition of tumor growth or percent prolongation of survival time ([3]; 1.0 mg/kg × 10 days, marked *: not statistically significantly different from control): 0%

CCC1CC2CN(CCc3c([nH]c4ccccc34)C(C(=O)OC)(c3cc4c(cc3OC)N(C)C3C(O)(C(=O)OC)C(OC(C)=O)C5(CC)C=CCN6CCC43C65)C2)C1 (centres unmarked) [deoxy VLB "A"]
activity in the treatment of experimental malignancies in animals [2]: active

CCC1(O)CN2CCc3c([nH]c4ccccc34)C(C(=O)OC)(c3cc4c(cc3OC)N(C)C3C(O)(C(=O)OC)C(OC(C)=O)C5(CC)C=CCN6CCC43C65)CC(O)(C2)C1 (centres unmarked) [leurocolombine]
activity in the treatment of experimental malignancies in animals [2]: active
